Results published in patent US10919894B2, “Adenine derivatives which are useful in the treatment of allergic diseases or other inflammatory conditions” (GlaxoSmithKline Biologicals SA, priority 2014, dated 2021).

Assays:
hTLR7 = biological target: T1, hTLR7 (Homo sapiens, UniProt Q9NYK1); assay: NF-κB SEAP reporter gene assay in HEK293 cells stably transfected with hTLR7; format: cell-based; conditions: for EC50: HEK 293, 24 h stimulation, NF-κB SEAP, read-out: TLR7 ED50; for higher TLR7 potency in relation to oxoadenine 3b: HEK293-hTLR7, FIG. 4A
T1 construct: host or cells: HEK293 cells stably transfected with hTLR7 and NF-κB SEAP reporter
T1 sequence (Q9NYK1 27-1049): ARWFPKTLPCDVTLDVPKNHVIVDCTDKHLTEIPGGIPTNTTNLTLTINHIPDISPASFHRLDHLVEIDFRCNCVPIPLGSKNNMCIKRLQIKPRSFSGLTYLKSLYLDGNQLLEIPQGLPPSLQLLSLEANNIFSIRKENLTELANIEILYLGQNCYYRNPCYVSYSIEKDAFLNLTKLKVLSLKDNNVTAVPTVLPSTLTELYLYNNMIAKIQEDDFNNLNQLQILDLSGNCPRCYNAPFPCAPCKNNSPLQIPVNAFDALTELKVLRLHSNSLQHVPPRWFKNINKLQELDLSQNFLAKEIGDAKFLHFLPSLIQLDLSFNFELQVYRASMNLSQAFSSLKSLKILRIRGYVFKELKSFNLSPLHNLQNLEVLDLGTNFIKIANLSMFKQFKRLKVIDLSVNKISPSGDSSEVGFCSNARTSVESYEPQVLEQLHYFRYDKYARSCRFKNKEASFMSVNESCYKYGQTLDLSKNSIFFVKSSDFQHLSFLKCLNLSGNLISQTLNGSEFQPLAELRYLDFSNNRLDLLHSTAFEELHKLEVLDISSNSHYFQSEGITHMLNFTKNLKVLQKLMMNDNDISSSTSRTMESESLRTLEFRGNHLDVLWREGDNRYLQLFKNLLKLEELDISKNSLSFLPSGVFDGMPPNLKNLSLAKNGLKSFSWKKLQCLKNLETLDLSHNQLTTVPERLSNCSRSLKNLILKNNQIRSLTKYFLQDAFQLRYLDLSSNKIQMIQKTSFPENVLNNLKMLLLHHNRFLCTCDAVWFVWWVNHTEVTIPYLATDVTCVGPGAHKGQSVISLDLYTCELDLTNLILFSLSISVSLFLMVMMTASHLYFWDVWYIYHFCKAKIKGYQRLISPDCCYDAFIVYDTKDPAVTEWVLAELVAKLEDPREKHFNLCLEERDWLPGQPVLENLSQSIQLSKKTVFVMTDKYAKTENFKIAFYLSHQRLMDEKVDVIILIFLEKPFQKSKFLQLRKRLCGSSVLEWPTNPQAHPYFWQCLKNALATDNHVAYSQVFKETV
Experimental: The human (h) TLR7/8 activity of oxoadenines 3a-g was assessed by a reporter gene assay using HEK293 cells stably transfected with either hTLR7 or hTLR8, and with the NF-κB SEAP (secreted embryonic alkaline phosphatase) reporter.
HEK293 cells expressing human TLR7 or TLR8, and NF-κB responsive SEAP reporter gene, were obtained from InvivoGen (San Diego, Calif.). These cells were maintained in culture media of Dulbecco's Modified Eagle Medium (DMEM)
(Invitrogen, Grand Island, N.Y.), 10% Fetal Bovine Serum (FBS) (Sigma, St. Louis, Mo.) and selection antibiotics (Invitrogen and InvivoGen). The stably transfected HEK293 cells were plated in 96-well flat bottom culture plates at 1^E5/well and stimulated for 24 h with a dose range of aqueous formulations of compounds starting at 200 μM, serially diluted to 0.012 μM with 2-fold dilutions (unless formulation conditions warranted lower starting concentrations). Culture supernatants were harvested and assayed for NFKB activation using the colorimetric SEAP detection kit QU ANTI-BLUE (a trademark of InvivoGen).
The assay measured NFKB mediated SEAP production following TLR7 or TLR8 specific activation.
It should be noted that the HEK assay is not optimal for evaluating TLR7 since TLR7 signals via both the NFKB (leading to induction of inflammatory cytokines) and IRF7 pathways (leading to IFN induction) and the HEK system only measures the NFKB side of TLR7 signaling. Oxoadenine 3a was not active on hTLR7 or hTLR8 but the other oxoadenines 3b-g were all active.

hPBMCs [1] = assay: TNFα induction in hPBMCs; format: cell-based, human; conditions: 24 hours stimulation
Experimental: (§1) Compounds were dissolved in 2% glycerol in water to working concentrations starting at 10 μM, serially diluted to 0.00013 μM with 5-fold dilutions. This compound preparation was added to 96-well flat bottom plates at a volume of 10 μl.
(§2) An additional 10 μl of media was added to these wells, or another compound preparation if co-stimulation was intended.
Blood samples from human donors were collected into heparinized 60 cc syringes, and divided into 20 ml aliquots in 50 ml conical culture tubes. The whole blood aliquots were then diluted with 15 ml of PBS, and then underlay with 15 ml HISTOPAQUE™. The samples were centrifuged at 800 g for 30 min with no brake and the buffy coat interface carefully removed. The collected cells were centrifuged at 1500 rpm for 5 minutes and the pellet resuspended in 10 ml of PBS. […] After the final wash, the combined cells were brought up in 20 ml complete media (RPMI 1640 supplemented with 10% v/v heat-inactivated Fetal Bovine Serum (FBS), 100 U/ml penicillin G, 100 μg/ml streptomycin, 10 mM L-glutamine), counted using a Countess automated cell counter (Invitrogen, Life Technologies) and diluted to give a final concentration of 2.8×10^6/ml. […]
The induction of cytokines in human peripheral blood mononuclear cells (hPBMCs) after 24 hours stimulation with oxoadenines 3e-g was next evaluated using cytokine ELISA and intracellular cytokine staining (ICS). […]

hPBMCs [2] = assay: IFNα induction in hPBMCs; format: cell-based; conditions: human PBMCs, FIG. 6
Experimental: as §1, §2
Blood samples from human donors were collected into heparinized 60 cc syringes, and divided into 20 ml aliquots in 50 ml conical culture tubes. The whole blood aliquots were then diluted with 15 ml of PBS, and then underlay with 15 ml HISTOPAQUE™. The samples were centrifuged at 800 g for 30 min with no brake and the buffy coat interface carefully removed. The collected cells were centrifuged at 1500 rpm for 5 minutes and the pellet resuspended in 10 ml of PBS. The cells were pooled and further washed twice in PBS to remove all HISTOPAQUE™ from the samples. After the final wash, the combined cells were brought up in 20 ml complete media (RPMI 1640 supplemented with 10% v/v heat-inactivated Fetal Bovine Serum (FBS), 100 U/ml penicillin G, 100 μg/ml streptomycin, 10 mM L-glutamine), counted using a Countess automated cell counter (Invitrogen, Life Technologies) and diluted to give a final concentration of 2.8×10^6/ml. […]
The induction of IFNα from hPBMCs upon stimulation with oxoadenines 3a-g was also evaluated. […]

pDC and mDC in hPBMCs = assay: Activation induced apoptosis by Annexin-V staining in pDC and mDC of stimulated hPBMCs; format: cell-based, human; conditions: hPBMCs stimulated with various doses
Source text: This observed cell type specific apoptosis correlated with the dose-dependent IFNα and TNFα induction curves.

human PBMCs = assay: IL-12p70 induction in human PBMCs in combination with CRX601 (TLR4 agonist); format: cell-based; set-up: key to IL-12p70 w/601: * through ****; lowest to highest cytokine induction level; * through ****; lowest to highest cytokine induction level; * through ****; lowest to highest cytokine induction level; * through ****; lowest to highest cytokine induction level; conditions: for IL-12p70 w/601: PBMC/Monocytes, in combination with CRX601; for synergy with CRX601 for IL12-p70: human PBMCs, FIGS. 8A and 8B
Experimental: as §2
(§3) Blood samples from human donors were collected into heparinized 60 cc syringes, and divided into 20 ml aliquots in 50 ml conical culture tubes. The whole blood aliquots were then diluted with 15 ml of PBS, and then underlay with 15 ml HISTOPAQUE™. The samples were centrifuged at 800 g for 30 min with no brake and the buffy coat interface carefully removed. The collected cells were centrifuged at 1500 rpm for 5 minutes and the pellet resuspended in 10 ml of PBS. The cells were pooled and further washed twice in PBS to remove all HISTOPAQUE™ from the samples. After the final wash, the combined cells were brought up in 20 ml complete media (RPMI 1640 supplemented with 10% v/v heat-inactivated Fetal Bovine Serum (FBS), 100 U/ml penicillin G, 100 μg/ml streptomycin, 10 mM L-glutamine), counted using a Countess automated cell counter (Invitrogen, Life Technologies) and diluted to give a final concentration of 2.8×10^6/ml. This cell suspension was added to the culture plate containing the compound preparations (see above), at a volume of 180 μl, resulting in a total well volume of 200 µl.
After 24 hr incubation (37° C., 95% air, 5% CO2), the supernatants were carefully removed and assayed for cytokine/chemokine induction using multiplex kits (FLUOROKINE™ multiplex kits from R&D Systems [bio-techne], Minneapolis, Minn.) and human IFNa VERIKINE™ ELISA kit (Pestka Biomedical Laboratories, Inc., Piscataway, N.J.).
As previously observed with other oxoadenines (see WO2010/018134), synergy with AGP CRX601 for IL12-p70 was relatively low compared to imidazoquinoline compound CRX642 (see WO2010/048520; PCT/US2009/061867; U.S. Pat. No. 8,624,029) in combination with CRX601.

PBMC/Monocytes = assay: Inflammatory cytokine induction in PBMC/Monocytes; format: cell-based, human; set-up: key: * through ****; lowest to highest cytokine induction level; * through ****; lowest to highest cytokine induction level; * through ****; lowest to highest cytokine induction level; * through ****; lowest to highest cytokine induction level
Experimental: as §1
as §3, with “µl. […]” for “µl.”

EC50 (hTLR7) [nM]	higher TLR7 potency in relation to oxoadenine 3b (hTLR7) [fold]	SMILES	TNFα induction in hPBMCs (in words) (hPBMCs [1])	dose at which IFN-alpha is induced (hPBMCs [2]) [nM]	Annexin-V staining in mDC (pDC and mDC in hPBMCs; mDC)	Annexin-V staining in pDC (pDC and mDC in hPBMCs; pDC)	IL-12p70 w/601 (human PBMCs)	synergy with CRX601 for IL12-p70 (human PBMCs)	Infl. Cytok. (PBMC/Monocytes)
26	50	CCCCOc1nc(N)c2[nH]c(=O)n(CCCCCC3CCNCC3)c2n1 [Compound 3f]	high potency	~1	not in mDC	dose dependent increase in Annexin-V staining	**	demonstrated synergy with CRX601 throughout a wide dose range	***
6	100	CCC[C@H](C)Oc1nc(N)c2nc(O)n(CCCCCC3CCNCC3)c2n1 [Compound 3x]	high potency	~1			**	demonstrated synergy with CRX601 throughout a wide dose range	
